Test results taken from patent US3997518A, “2-Alkyl-4-carboxyalkyl-5-(3,3'-dimethyltriazeno)-imidazoles” (Beecham Group Limited, priority 1970, dated 1976).
Converted amounts (≈) assume the structure as drawn.

Tests used:
[1] = tested on: R1 lymphoma; test: Activity against R1 lymphoma, increase in survival time (Table B, slightly different strain); type: in vivo, mice; settings: for ILS at 128 mg/kg: 128 mg/kg i.p. daily day 3 to day 7; for ILS at 33 mg/kg: 33 mg/kg i.p. daily day 3 to day 7
Description: (§1) The R1 lymphoma is normally sensitive to anti-metabolites. Typically mice having a transplant of 1.5 × 10^6 tumour cells die from the metastisizing tumour on day 9, 10 or 11 after transplant.
(§2) The compounds illustrated below were dosed by the intra peritoneal route in a vehicle of 10% acetone in arachas oil daily from day 3 to day 7 after tumour transplant. The increase in survival time over control was measured.
(§3) The dose reported is that dose which gave the maximum increase in survival time. Lower doses gave less activity and higher doses are toxic.
(§4) The results are split into two sections (in Table A and Table B) because two slightly different strains of R1 lymphoma were used.

[2] = tested on: PC 6 tumour; test: PC 6 tumour screen; type: in vivo, mice
Source text: (§5) The breadth of antitumour spectrum of the compounds of the invention in mice is illustrated by their activity in the ADJ/PC6 plasma cell tumour. This is a solid tumour sensitive to most alkylating agents. Good activity is rarely seen against this tumour and the R1 lymphoma.
The test of example 91 was repeated using the PC 6 tumour screen.

[3] = tested on: Staphylococus aureus; test: Antibacterial activity, MIC; type: cell-based; settings: DST agar + 5% lysed horse blood
Source text: (§6) Compounds of this invention have shown antibacterial activity. Thus the minimum inhibitory concentration (M.I.C.) of 4-carboxyethyl-5-(3,3-dimethyltriazeno)-2-phenylimidazole and the corresponding 2-methylimidazole in DST agar + 5% lysed horse blood are illustrated against the following bacteria.

[4] = tested on: Pseudomonas aeroginosa; test: Antibacterial activity, MIC; type: cell-based; settings: DST agar + 5% lysed horse blood
Source text: as §6

[5] = tested on: E. Coli; test: Antibacterial activity, MIC; type: cell-based; settings: Escherichia coli; DST agar + 5% lysed horse blood
Source text: as §6

[6] = tested on: Proteus mirabilis; test: Antibacterial activity, MIC; type: cell-based; settings: DST agar + 5% lysed horse blood
Source text: as §6

[7] = tested on: R1 lymphoma; test: Activity against R1 lymphoma, increase in survival time (Table A); type: in vivo, mice; settings: Mus musculus, ip, read-out: Medium % increase in survival time; for ILS at 32 mg/kg: 32 mg/kg i.p. daily day 3 to day 7; for ILS at 64 mg/kg: 64 mg/kg i.p. daily day 3 to day 7; for ILS at 128 mg/kg: 128 mg/kg i.p. daily day 3 to day 7; for ILS at 33 mg/kg: 33 mg/kg i.p. daily day 3 to day 7
Description: as §1, §2, §3, §4

[8] = tested on: ADJ/PC6 plasma cell tumour; test: ADJ/PC6 plasma cell tumour, inhibition of tumour weight; type: in vivo, mice; settings: i.p. dosing × 5; for ED90: Mus musculus, ADJ/PC6, ip, read-out: ID90 (the source's name); for Therapeutic Index: LD50 compared with ID90
Source text: as §5

[9] = tested on: Candida neoformans; test: Antifungal activity, minimum inhibitory concentration; type: cell-based
Source text: (§7) Antifungal activity has been found in compounds of this invention. Thus 4-carboxyethyl-5-(3,3-dimethyltriazeno)-2-phenylimidazole has the following minimum inhibitory concentrations.

[10] = tested on: Trychopyton mentagrophytes; test: as above; type: cell-based
Source text: as §7

[11] = tested on: Candida albicans; test: as above; type: cell-based
Source text: as §7

[12] = Dose at which 50% of the animals were killed (LD50); parameters: species or system mice; settings: mouse, in vivo, ip; i.p. dosing × 5
Source text: as §5

[13] = tested on: Friend leukaemia virus; test: Friend Leukaemia, inhibition of splenomegally; type: in vivo, mice; settings: sub-cutaneously 250 mg/kg/day on day -1, +1, +2 and +3 with respect to infection
Source text: Activity of these compounds has also been shown in Friend Leukaemia. Friend leukaemia virus is a prolonged infection in mice produced splenomegally.

[14] = tested on: Streptococus heamolyticus; test: Antibacterial activity, MIC; type: cell-based; settings: DST agar + 5% lysed horse blood
Source text: as §6

[15] = Skibba et al., Biochemical Pharmacology, 19, 2043 (1970); cited from earlier work
[16] = Mus musculus, ip, Table B strain, 32 mg/kg i.p. daily day 3 to day 7, dose of maximum increase, read-out: Medium % increase in survival time
[17] = Mus musculus, ip, Table B strain, dose of maximum increase, read-out: Medium % increase in survival time
[18] = Table A strain, dose of maximum increase
[19] = dose at which 90% inhibition of tumour weight occurs

## CCOC(=O)c1nc(CC)[nH]c1N=NN(C)C [4-Carbethoxy-5-(3,3-dimethyltriazeno)-2-ethyl imidazole]
[1]; [16]
  ILS at 32 mg/kg: 70%

## Cc1nc(C(N)=O)c(N=NN(C)C)[nH]1 [4-Carboxamido-5-(3,3-dimethyltriazeno)-2-methyl imidazole]
[1]; [17]
  ILS at 128 mg/kg: 60%

## CCOC(=O)c1nc(C)[nH]c1N=NN(C)C [4-Carbethoxy-5-(3,3-dimethyltriazeno)-2-methylimidazole]
[1]; [16]
  ILS at 32 mg/kg: 90%
[2]; i.p. dosing
  Therapeutic Index: 47
[2]; oral dosing
  Therapeutic Index: 40
[3]
  MIC: 7.5 µg/mL
[4]
  MIC: 62 µg/mL
[5]
  MIC: 15 µg/mL
[6]
  MIC: 15 µg/mL

## CCCc1nc(C(=O)OCC)c(N=NN(C)C)[nH]1 [4-Carbethoxy-5-(3,3-dimethyltriazeno)-2-n propyl imidazole]
[1]; [16]
  ILS at 32 mg/kg: 130%

## CCOC(=O)c1nc(-c2cccnc2)[nH]c1N=NN(C)C [4-Carbethoxy-5-(3,3-dimethyltriazeno)-2-(3-pyridyl)imidazole]
[7]; [18]
  ILS at 32 mg/kg: 170%

## CCOC(=O)c1nc(Cc2ccccc2)[nH]c1N=NN(C)C [4-Carbethoxy-5-(3,3-di-methyl-triazeno)-2-benzyl imidazole]
[7]; [18]
  ILS at 64 mg/kg: 200%

## CCOC(=O)c1nc(-c2ccccc2)[nH]c1N=NN(C)C [4-Carbethoxy-5-(3,3-dimethyl-triazeno)-2-phenyl imidazole]
[8]; [19]
  ED90: 3.5 mg/kg
[8]
  Therapeutic Index: 88
[1]; [17]
  ILS at 33 mg/kg: 65%
[9]
  MIC: 10 to 50 µg/mL (≈ 34.8 to 174 µM)
[10]
  MIC: 10 µg/mL (≈ 34.8 µM)
[11]
  MIC: 10 µg/mL (≈ 34.8 µM)
[12]
  LD50: 310 mg/kg
[13]
  inhibition of the splenomegally: complete inhibition of the splenomegally
[7]; [18]
  ILS at 32 mg/kg: 300%
[2]; i.p. dosing
  Therapeutic Index: 27
[2]; oral dosing
  Therapeutic Index: 11
[3]
  MIC: 10 µg/mL
[14]
  MIC: 1 µg/mL

## CCOC(=O)c1nc(N(C)C)[nH]c1N=NN(C)C [4-Carbethoxy-5-(3,3-dimethyltriazeno)-2-dimethylamino imidazole]
[1]; Mus musculus, ip, Table B strain, 16 mg/kg i.p. daily day 3 to day 7, dose of maximum increase, read-out: Medium % increase in survival time
  ILS at 16 mg/kg: 45%

## CCOC(=O)c1nc(C)n(C)c1N=NN(C)C [4-Carbethoxy-5-(3,3-dimethyltriazeno-1-2 dimethylimidazole]
[1]; Table B strain, 32 mg/kg i.p. daily day 3 to day 7, dose of maximum increase
  Medium % increase in survival time: 65%

## CN(C)N=Nc1[nH]c(-c2cccs2)nc1C(N)=O [4-Carboxamido-5-(3,3-dimethyltriazeno)-2-(2-thienyl)imidazole]
[7]; [18]
  ILS at 128 mg/kg: 50%

## CCOC(=O)c1nc(S)[nH]c1N=NN(C)C [4-Carbethoxy-5-(3,3-dimethyltriazeno)-2-mercapto imidazole]
[1]; [17]
  ILS at 128 mg/kg: 140%

## CN(C)N=Nc1[nH]c(-c2ccccc2)nc1C(N)=O [4-Carboxamido-5-(3,3-dimethyltriazeno)-2-phenylimidazole]
[8]; [19]
  ED90: 16 mg/kg
[8]
  Therapeutic Index: 15
[12]
  LD50: 240 mg/kg
[7]; Table A strain, 50 mg/kg i.p. daily day 3 to day 7, dose of maximum increase
  ILS at 50 mg/kg: 80%

## CCOC(=O)c1nc(COc2ccccc2)[nH]c1N=NN(C)C [4-Carbethoxy-5-(3,3-dimethyltriazeno)-2-phenoxymethyl imidazole]
[7]; [18]
  ILS at 64 mg/kg: 85%

## CCOC(=O)c1nc(-c2ccccc2F)[nH]c1N=NN(C)C [4-Carboxyethyl-5-(3,3-dimethyltriazeno)-2-(2-fluorophenyl) imidazole]
[7]; Table A strain, 10 mg/kg i.p. daily day 3 to day 7, dose of maximum increase
  ILS at 10 mg/kg: 100%

## CCOC(=O)c1nc(-c2ccc(OC)c(OC)c2)[nH]c1N=NN(C)C [4-Carboxyethyl-5-(3,3-dimethyltriazeno)-2-(3,4-dimethoxy-phenyl) imidazole]
[7]; [18]
  ILS at 33 mg/kg: 200%

## CCOC(=O)c1nc(C2CCCCC2)[nH]c1N=NN(C)C [4-Carbethoxy-5-(3,3-dimethyltriazeno)-2-cyclohexyl imidazole]
[1]; Mus musculus, ip, Table B strain, 21 mg/kg i.p. daily day 3 to day 7, dose of maximum increase, read-out: Medium % increase in survival time
  ILS at 21 mg/kg: 85%

## CCOC(=O)c1nc(-c2ccc(Cl)cc2)[nH]c1N=NN(C)Cc1ccccc1 [4-Carboxyethyl-5-(3-methyl-3-benzyltriazeno)-2-(4-chlorophenyl)imidazole]
[7]; Table A strain, 100 mg/kg i.p. daily day 3 to day 7, dose of maximum increase
  ILS at 100 mg/kg: 40%

## CCOC(=O)c1nc(-c2ccsc2)[nH]c1N=NN(C)C [4-Carboxyethyl-5-(3,3-dimethyltriazeno)-2-(3-thienyl) imidazole]
[7]; [18]
  ILS at 33 mg/kg: 200%

## CCOC(=O)c1nc(-c2ccc(OC)cc2)[nH]c1N=NN(C)C [4-Carboxyethyl-5-(3,3-dimethyltriazeno)-2-(4-methoxyphenyl) imidazole]
[7]; [18]
  ILS at 33 mg/kg: 50%

## CCOC(=O)c1nc(COc2ccc(OC)cc2)[nH]c1N=NN(C)C [4-Carbethoxy-5-(3,3-dimethyltriazeno)-2-p-methoxy-phenoxymethylimidazole]
[7]; [18]
  ILS at 64 mg/kg: > 150%

## CCOC(=O)Cc1nc(C(=O)OCC)c(N=NN(C)C)[nH]1 [4-Carbethoxy-5-(3,3-dimethyltriazeno)-2-carbethoxymethyl imidazole]
[7]; [18]
  ILS at 64 mg/kg: 400%

## CCOC(=O)c1nc(-c2cccc(C)c2)[nH]c1N=NN(C)C [4-Carboxyethyl-5-(3,3-dimethyltriazeno)-2-(3-methyl-phenyl) imidazole]
[7]; [18]
  ILS at 128 mg/kg: 150%

## COC(=O)c1nc(S)[nH]c1N=NN(C)C [4-Carbmethoxy-5-(3,3-dimethyltriazeno)-2-mercapto imidazole]
[1]; [16]
  ILS at 32 mg/kg: 90%

## COC(=O)c1nc(-c2ccccc2)[nH]c1N=NN(C)C
[7]; Table A strain, 16 mg/kg i.p. daily day 3 to day 7, dose of maximum increase
  ILS at 16 mg/kg: 400%

## CN(C)N=Nc1[nH]cnc1C(N)=O [DIC, 4-Carboxamide-5-(3,3-dimethyltriazeno)imidazole, reference compound]
[1]; [17]
  ILS at 33 mg/kg: 60%
[7]; [18]
  ILS at 32 mg/kg: 300%
[2]; i.p. dosing
  Therapeutic Index: 33
[2]; oral dosing
  Therapeutic Index: 24
[15]
  degradation in man: degraded substantially to AIC

## CN(Cc1cnc2nc(N)nc(N)c2n1)c1ccc(C(=O)N[C@@H](CCC(=O)O)C(=O)O)cc1 [Methotrexate, 4-amino-10-methyl folic acid, reference compound]
[8]; [19]
  ID90: Inactive
[1]; Mus musculus, ip, read-out: Medium % increase in survival time
  ILS at 2 mg/kg: 60%
[7]
  ILS at 2 mg/kg: 100%

## CCOC(=O)c1nc(-c2ccc3ccccc3c2)[nH]c1N=NN(C)C [4-Carboxyethyl-5-(3,3-dimethyltriazeno)-2-(2-naphthyl) imidazole]
[7]; [18]
  ILS at 128 mg/kg: 170%

## CCOC(=O)c1nc(-c2ccc(F)cc2)[nH]c1N=NN(C)C [4-Carbethoxy-5-(3,3-dimethyltriazeno)-2-(p-fluorophenyl) imidazole]
[8]; [19]
  ED90: 20 mg/kg
[8]
  Therapeutic Index: 10
[12]
  LD50: 200 mg/kg
